ChEMBL document CHEMBL1201862, “PubChem BioAssay data set” (2004)
Calls of active or inactive are those of the source.

Legend:
Interleukin-8 [1] = molecular target: T1, Interleukin-8 (Homo sapiens, UniProt P10145); assay: Dose Response confirmation of uHTS small molecule hits for cystic fibrosis induced NFkb Inhibitors in a TNFa-induced IL8 counterscreen.; type: functional; details: read-out: IC50_Mean
Interleukin-8 [2] = molecular target: T1, Interleukin-8; assay: Dose Response confirmation of uHTS small molecule hits for cystic fibrosis induced NFkb Inhibitors in a PAF-induced IL8 counterscreen.; type: functional; details: read-out: IC50_Mean
Large T antigen = Large T antigen (Simian virus 40, UniProt P03070); type: functional, Betapolyomavirus macacae;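 also: Confirmatory-stage PubChem screen for compounds that inhibit SV40 T antigen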
[3] = molecular target: 26S proteasome non-ATPase regulatory subunit 14 (Homo sapiens, UniProt O00487); assay: inhibition of proteasome subunit RPN11 – biochemical, fluorescence polarization, uHTS hits, confirmation (AID 602368); type: functional
Sequence of 26S proteasome non-ATPase regulatory subunit 14 (O00487 whole entry): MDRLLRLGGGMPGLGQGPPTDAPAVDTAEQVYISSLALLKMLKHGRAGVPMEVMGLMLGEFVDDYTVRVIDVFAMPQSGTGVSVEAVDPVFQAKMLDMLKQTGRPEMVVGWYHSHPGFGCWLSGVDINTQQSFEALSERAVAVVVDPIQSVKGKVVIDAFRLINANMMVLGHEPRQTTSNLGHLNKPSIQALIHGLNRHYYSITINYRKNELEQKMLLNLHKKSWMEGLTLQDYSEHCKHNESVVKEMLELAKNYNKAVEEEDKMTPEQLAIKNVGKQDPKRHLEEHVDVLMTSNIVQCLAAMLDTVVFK

[4] = molecular target: 72 kDa type IV collagenase (Homo sapiens, UniProt P08253); assay: Dose Response validation of uHTS RPN11 inhibitor hits using a MMP-2 Fluorescence assay.; type: functional
Sequence of 72 kDa type IV collagenase (P08253 whole entry): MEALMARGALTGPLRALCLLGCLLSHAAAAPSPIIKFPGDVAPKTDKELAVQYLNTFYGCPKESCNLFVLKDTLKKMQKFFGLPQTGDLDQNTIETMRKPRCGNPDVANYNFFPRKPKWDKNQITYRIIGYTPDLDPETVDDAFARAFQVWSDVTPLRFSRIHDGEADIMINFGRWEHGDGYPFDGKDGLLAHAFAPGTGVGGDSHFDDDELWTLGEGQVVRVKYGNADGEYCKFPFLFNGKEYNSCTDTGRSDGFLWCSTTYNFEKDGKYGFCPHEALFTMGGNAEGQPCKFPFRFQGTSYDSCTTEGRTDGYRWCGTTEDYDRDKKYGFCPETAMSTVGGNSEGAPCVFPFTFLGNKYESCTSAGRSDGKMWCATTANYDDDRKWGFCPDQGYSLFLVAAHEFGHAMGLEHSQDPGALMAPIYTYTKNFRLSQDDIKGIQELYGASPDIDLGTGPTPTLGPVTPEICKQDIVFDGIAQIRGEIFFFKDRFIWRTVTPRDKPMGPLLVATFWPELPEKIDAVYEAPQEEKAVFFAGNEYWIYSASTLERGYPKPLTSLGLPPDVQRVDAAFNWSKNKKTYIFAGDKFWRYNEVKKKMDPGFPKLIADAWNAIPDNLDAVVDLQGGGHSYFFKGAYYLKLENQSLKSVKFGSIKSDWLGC

Prothrombin = Prothrombin (Bos taurus, UniProt P00735); assay: thrombin inhibition, dose response, biochemical, fluorescence polarization, uHTS hits (AID 602369); type: functional
[5] = system: Streptococcus sp. 'group A'; assay: growth inhibition of control SK(-) GAS strain, dose response, counter-screen for streptokinase expression inhibitor project, luminescence, kanamycin, BacTiterGlo, confirmation (AID 1900); type: functional, organism-based
[6] = molecular target: T2, Zinc finger protein mex-5 (Caenorhabditis elegans, UniProt Q9XUB2); assay: MEX-5/TCR-2 RNA interaction inhibitors, dose response, biochemical, C. elegans, fluorescence polarization (AID 1960)
T2 sequence (Q9XUB2 whole entry): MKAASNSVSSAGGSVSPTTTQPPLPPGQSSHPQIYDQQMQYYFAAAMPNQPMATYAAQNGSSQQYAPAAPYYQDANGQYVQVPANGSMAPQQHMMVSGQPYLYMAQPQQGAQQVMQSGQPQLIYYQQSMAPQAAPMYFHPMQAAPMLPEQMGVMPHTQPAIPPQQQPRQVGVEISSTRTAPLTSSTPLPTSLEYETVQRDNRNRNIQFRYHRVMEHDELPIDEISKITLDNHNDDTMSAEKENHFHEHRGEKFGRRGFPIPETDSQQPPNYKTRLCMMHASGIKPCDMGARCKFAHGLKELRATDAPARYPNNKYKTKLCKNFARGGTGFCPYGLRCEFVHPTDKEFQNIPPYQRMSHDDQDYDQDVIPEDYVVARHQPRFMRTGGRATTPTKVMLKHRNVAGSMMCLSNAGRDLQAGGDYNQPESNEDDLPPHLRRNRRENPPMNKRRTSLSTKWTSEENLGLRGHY

Streptococcus = assay: Group A Streptococcus viability loss, dose response, counter-screen for streptokinase expression inhibitor project, luminescence, BacTiterGlo (AID 1915); type: functional, organism-based;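 also: potency for reduction of bacterial viability or growth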
Escherichia coli [7] = assay: microbe, parasite or virus in culture
Escherichia coli [8] = assay: microbe, parasite or virus in culture; remark: listed apart in the source
[9] = Luminescence Cell-Based Dose Response to Identify Activators of 5'UTR Stem-Loop Driven Prion Protein mRNA Translation in H4-C Neuroglioblastoma Cells. [Related pubchem assays: 1829 (Project Summary), 1814 (Primary HTS)]; type: functional
H4 = assay: Luminescence Cell-Based Dose Response HTS to Identify Activators of 5'UTR Stem-Loop Driven Prion Protein mRNA Translation in H4 Neuroglioblastoma Cells. [Related pubchem assays: 1829 (Project Summary), 1814 (Primary HTS)]; type: functional; details: Homo sapiens
[10] = Luminescence Cell-Based Dose Response to Identify Activators of Luciferase Translation or Activity in H4-C Neuroglioblastoma Cells. [Related pubchem assays: 1829 (Project Summary), 1814 (Primary HTS)]; type: functional
[11] = Luminescence Cell-Based Dose Confirmation to Identify Activators of 5'UTR Stem-Loop Driven Alpha-Synuclein mRNA Translation in H4 Neuroglioblastoma Cells. [Related pubchem assays: 1829 (Project Summary), 1814 (Primary HTS)]; type: functional
HEK293 = assay: cells; type: functional, cell-based; details: Homo sapiens
[12] = molecular target: Nuclear receptor subfamily 0 group B member 1 (Homo sapiens, UniProt P51843); assay: Luminescence-based cell-based high throughput dose response assay for inhibitors of the orphan nuclear receptor subfamily 0, group B, member 1 (DAX1; NR0B1). [Related pubchem assays (depositor defined):AID504766, AID504790]; type: functional
Sequence of Nuclear receptor subfamily 0 group B member 1 (P51843 whole entry): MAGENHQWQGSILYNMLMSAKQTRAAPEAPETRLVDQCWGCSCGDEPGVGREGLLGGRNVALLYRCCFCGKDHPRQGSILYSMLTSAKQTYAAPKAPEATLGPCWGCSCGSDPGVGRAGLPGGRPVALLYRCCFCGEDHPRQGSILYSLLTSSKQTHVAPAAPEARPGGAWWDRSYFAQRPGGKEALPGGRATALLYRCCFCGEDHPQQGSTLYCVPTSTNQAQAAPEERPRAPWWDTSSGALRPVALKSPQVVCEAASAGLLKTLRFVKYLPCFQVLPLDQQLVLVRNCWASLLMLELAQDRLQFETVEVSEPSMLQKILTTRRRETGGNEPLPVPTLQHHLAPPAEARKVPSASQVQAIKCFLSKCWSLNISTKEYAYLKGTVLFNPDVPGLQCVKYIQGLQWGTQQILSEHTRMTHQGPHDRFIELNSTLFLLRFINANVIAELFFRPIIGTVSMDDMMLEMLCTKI

Bcl-2-related protein A1 = molecular target: T3, Bcl-2-related protein A1 (Mus musculus, UniProt Q07440); type: functional;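 also: confirmatory dose–response counterscreen on Bfl-1, used to check hits from a UBC13 polyubiquitin inhibitor campaign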
T3 sequence (Q07440 whole entry): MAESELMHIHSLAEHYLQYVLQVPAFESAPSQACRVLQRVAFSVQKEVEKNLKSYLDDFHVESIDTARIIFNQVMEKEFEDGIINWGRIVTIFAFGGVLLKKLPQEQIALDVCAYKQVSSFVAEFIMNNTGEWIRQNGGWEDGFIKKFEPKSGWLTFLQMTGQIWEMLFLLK

[13] = molecular target: T4, Ubiquitin-conjugating enzyme E2 N (Homo sapiens, UniProt P61088); type: functional
T4 sequence (P61088 whole entry): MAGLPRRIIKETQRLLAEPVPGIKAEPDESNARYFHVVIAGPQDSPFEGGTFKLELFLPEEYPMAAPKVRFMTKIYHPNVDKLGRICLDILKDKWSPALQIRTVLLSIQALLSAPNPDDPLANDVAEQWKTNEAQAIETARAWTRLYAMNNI

[14] = molecular target: T4, Ubiquitin-conjugating enzyme E2 N; type: functional; remark: listed apart in the source
[15] = molecular target: T5, Apoptotic protease-activating factor 1 (Homo sapiens, UniProt O14727); assay: SAR analysis of small molecule inhibitors of Apaf-1 in a Fluorescent assay.; type: functional; details: read-out: IC50_Mean
T5 sequence (O14727 whole entry): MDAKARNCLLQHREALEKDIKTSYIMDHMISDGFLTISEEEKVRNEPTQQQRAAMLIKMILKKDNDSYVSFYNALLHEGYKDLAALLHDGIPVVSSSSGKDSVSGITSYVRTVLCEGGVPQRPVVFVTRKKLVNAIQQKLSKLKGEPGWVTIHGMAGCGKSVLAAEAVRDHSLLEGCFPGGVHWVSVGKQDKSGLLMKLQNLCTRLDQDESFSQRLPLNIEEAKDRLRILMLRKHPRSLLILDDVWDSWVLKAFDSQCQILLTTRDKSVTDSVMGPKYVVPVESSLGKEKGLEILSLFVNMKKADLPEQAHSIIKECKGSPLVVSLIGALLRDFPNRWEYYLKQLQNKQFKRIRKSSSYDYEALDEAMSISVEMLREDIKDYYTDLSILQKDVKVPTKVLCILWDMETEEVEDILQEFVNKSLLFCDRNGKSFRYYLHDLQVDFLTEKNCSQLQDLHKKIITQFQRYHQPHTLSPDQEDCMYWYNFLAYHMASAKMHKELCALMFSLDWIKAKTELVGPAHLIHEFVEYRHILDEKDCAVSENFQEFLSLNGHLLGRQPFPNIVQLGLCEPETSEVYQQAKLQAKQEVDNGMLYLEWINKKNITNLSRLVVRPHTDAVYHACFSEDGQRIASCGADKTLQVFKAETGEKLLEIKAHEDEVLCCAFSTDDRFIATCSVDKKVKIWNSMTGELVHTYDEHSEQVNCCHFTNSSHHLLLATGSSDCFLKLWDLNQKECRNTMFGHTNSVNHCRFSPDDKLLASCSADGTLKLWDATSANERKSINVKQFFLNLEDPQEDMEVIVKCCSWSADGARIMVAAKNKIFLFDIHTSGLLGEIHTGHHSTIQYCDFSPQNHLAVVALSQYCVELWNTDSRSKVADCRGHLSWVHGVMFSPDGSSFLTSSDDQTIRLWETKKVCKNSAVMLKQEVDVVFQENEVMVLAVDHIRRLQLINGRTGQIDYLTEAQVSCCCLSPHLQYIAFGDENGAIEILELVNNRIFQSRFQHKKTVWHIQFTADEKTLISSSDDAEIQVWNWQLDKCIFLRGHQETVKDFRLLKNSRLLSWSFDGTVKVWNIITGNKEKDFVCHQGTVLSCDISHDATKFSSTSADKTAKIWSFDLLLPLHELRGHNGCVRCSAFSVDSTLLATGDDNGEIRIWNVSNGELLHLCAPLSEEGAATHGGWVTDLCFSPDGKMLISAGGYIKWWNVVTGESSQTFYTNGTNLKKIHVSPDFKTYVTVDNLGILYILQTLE

[16] = molecular target: T6, Small ubiquitin-related modifier 1 (Homo sapiens, UniProt P63165); assay: inhibitors of SUMO1 peptide binding, dose response, biochemical, fluorescence polarization, uHTS hits (AID 624382); type: functional; details: read-out: IC50_Mean
T6 sequence (P63165 whole entry): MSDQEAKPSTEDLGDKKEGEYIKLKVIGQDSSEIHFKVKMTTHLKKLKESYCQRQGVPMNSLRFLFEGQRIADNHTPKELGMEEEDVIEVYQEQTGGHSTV

[17] = molecular target: T6, Small ubiquitin-related modifier 1; assay: inhibitors of SUMO1 partner interactions, dose response, biochemical, FRET (AID 624383); type: functional; details: read-out: IC50_Mean
Fatty acid synthase [18] = molecular target: T7, Fatty acid synthase (Homo sapiens, UniProt P49327); assay: FAS thioesterase domain inhibitors, dose response, biochemical, endpoint fluorescence intensity, uHTS hits (AID 624327); type: functional;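 also: fluorescence from hydrolysis of an O-methyl fluorescein acyl ester substrate by the enzyme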
T7 sequence (P49327 whole entry, the tested form may be a part): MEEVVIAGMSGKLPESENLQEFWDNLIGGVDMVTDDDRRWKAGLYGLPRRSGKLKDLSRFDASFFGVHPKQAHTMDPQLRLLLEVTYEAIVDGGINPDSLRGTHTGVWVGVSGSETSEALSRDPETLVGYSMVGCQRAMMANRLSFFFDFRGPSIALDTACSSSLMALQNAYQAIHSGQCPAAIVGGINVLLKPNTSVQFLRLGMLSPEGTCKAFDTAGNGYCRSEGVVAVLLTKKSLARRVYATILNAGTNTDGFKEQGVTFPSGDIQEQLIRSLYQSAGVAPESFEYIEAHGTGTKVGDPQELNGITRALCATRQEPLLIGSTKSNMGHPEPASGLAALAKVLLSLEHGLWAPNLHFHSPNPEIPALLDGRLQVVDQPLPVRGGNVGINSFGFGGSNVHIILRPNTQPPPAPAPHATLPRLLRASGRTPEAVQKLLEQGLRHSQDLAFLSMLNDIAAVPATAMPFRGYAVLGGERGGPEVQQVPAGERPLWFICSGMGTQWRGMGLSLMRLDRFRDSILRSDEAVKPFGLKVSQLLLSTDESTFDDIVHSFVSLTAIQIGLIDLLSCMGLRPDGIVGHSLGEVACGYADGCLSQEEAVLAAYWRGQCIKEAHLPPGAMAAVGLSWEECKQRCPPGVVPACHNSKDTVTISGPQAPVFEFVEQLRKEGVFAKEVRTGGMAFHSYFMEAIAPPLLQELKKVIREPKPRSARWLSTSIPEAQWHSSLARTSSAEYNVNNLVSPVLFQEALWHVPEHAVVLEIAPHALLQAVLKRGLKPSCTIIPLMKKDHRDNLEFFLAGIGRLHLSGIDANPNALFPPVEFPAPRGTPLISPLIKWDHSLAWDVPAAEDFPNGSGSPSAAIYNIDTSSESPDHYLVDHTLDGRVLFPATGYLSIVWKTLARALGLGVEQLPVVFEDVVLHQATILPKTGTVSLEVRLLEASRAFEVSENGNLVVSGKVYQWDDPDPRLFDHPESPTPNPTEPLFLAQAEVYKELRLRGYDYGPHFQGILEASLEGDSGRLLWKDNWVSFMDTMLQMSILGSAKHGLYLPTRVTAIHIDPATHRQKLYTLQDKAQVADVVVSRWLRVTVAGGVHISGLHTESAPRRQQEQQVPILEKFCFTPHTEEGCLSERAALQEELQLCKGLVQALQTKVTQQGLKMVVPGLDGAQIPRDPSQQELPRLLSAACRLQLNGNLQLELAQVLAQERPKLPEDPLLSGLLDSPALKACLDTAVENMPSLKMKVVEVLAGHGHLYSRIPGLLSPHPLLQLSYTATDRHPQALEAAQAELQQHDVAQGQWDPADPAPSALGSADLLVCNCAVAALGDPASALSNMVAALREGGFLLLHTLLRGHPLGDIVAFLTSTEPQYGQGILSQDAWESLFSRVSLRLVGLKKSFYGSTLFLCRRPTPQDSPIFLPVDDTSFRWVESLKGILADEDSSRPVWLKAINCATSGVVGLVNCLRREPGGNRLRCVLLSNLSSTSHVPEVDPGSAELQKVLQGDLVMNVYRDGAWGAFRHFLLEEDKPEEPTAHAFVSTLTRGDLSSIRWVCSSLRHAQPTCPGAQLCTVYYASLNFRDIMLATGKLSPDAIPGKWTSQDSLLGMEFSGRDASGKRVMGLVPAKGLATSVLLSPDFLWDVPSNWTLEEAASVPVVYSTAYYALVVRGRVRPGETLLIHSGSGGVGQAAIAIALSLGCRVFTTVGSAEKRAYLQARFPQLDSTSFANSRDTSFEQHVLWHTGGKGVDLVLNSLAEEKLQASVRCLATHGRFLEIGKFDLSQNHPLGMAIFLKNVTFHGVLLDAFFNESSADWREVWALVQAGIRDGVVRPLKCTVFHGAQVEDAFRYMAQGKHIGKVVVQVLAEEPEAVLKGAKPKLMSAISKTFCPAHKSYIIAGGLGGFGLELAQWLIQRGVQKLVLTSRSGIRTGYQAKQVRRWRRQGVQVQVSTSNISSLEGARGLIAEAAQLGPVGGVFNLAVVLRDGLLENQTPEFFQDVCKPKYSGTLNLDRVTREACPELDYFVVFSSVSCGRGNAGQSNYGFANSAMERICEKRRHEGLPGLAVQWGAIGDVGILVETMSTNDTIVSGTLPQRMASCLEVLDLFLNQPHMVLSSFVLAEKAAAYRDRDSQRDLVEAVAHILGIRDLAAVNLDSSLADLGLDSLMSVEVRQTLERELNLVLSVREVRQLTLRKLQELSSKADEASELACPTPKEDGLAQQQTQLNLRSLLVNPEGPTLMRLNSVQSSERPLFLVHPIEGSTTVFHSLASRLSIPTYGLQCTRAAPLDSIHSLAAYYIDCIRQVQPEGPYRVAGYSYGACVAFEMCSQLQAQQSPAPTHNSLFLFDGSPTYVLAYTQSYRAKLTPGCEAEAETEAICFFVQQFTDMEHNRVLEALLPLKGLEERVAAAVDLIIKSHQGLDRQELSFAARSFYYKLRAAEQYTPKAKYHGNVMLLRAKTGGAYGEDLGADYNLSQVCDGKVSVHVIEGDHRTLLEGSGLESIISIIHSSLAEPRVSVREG

Fatty acid synthase [19] = molecular target: T7, Fatty acid synthase; assay: FAS thioesterase domain inhibitors, dose response, biochemical, kinetic fluorescence intensity (AID 624326); type: functional;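 also: rate of fluorescence rise from hydrolysis of a fluorogenic O-methyl fluorescein ester substrate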
Galanin receptor type 3 = molecular target: T8, Galanin receptor type 3 (Homo sapiens, UniProt O60755); assay: Fluorescence-based cell-based primary high throughput dose response assay to identify antagonists of the Galanin Receptor 3 (GalR3).; type: functional
T8 sequence (O60755 whole entry): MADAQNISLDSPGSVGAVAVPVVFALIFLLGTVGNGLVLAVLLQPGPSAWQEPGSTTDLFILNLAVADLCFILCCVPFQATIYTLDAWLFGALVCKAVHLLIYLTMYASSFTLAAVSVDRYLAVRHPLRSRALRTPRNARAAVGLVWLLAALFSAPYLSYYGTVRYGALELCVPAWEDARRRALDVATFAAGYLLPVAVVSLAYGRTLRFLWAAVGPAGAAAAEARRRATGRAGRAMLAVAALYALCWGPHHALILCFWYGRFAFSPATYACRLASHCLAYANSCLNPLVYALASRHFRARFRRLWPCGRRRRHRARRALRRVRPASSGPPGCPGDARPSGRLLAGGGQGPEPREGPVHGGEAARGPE

cells = type: functional, cell-based; details: HEK-CNG
[20] = molecular target: Adenosylmethionine-8-amino-7-oxononanoate aminotransferase (Mycobacterium tuberculosis, UniProt P9WQ81); assay: Mycobacterium tuberculosis BioA enzyme inhibitor Measured in Biochemical System Using Plate Reader - 2163-02_Inhibitor_Dose_CherryPick_Activity.; type: functional, Mycobacterium tuberculosis UT205
Sequence of Adenosylmethionine-8-amino-7-oxononanoate aminotransferase (P9WQ81 whole entry): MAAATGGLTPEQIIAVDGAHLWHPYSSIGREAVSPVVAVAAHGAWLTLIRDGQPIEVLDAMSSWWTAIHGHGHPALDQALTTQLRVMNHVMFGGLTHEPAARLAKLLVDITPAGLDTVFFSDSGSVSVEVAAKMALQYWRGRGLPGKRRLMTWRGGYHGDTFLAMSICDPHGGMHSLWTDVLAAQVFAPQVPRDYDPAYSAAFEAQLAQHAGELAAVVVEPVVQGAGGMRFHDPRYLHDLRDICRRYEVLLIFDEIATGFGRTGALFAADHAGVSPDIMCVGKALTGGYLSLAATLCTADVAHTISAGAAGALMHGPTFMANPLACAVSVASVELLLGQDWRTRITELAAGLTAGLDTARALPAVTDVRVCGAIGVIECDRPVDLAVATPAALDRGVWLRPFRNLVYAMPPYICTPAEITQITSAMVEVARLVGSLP

[21] = NIH-3T3 fibroblast cytotoxicity, dose response, cytotoxicity control, cell-based, fluorescence, Alamar Blue, secondary assay (AID 2327); type: functional;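 also: NIH-3T3 mouse fibroblasts cultured with fluconazole at 8 µg/mL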
[22] = C. albicans growth with fluconazole, confirmation, fluorescence, retest (AID 2467); type: functional, cell-based
[23] = molecular target: Serine/threonine-protein phosphatase (Candida dubliniensis (strain CD36 / CBS 7987 / NCPF 3949 / NRRLY-17841) (Yeast), UniProt B9W6M3); assay: calcineurin pathway inhibitors in yeast reporter, dose response, S. cerevisiae, CDRE-lacZ, luminescence, secondary (AID 2388); type: functional, cell-based;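 also: yeast reporter cells carrying a calcineurin-responsive lacZ construct stimulated with calcium chloride; luminescent beta-galactosidase reporter signal in whole cells rather than isolated phosphatase activity; potency for inhibition where a drop in reporter signal means calcineurin blockade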
[24] = Luminescence Cell-Based Dose Retest to Confirm Inhibitors of Cancer Stem Cells. [Related pubchem assays (depositor defined):AID2717, AID2721]; type: functional; details: Homo sapiens
[25] = molecular target: ATP-dependent molecular chaperone HSP82 (Candida albicans (strain WO-1) (Yeast), UniProt C4YTQ8); assay: loss of DOC-induced GRE-beta-galactosidase reporter signal, dose response, Hsp90 inhibitor project, S. cerevisiae, luminescence (AID 2400); type: functional, cell-based;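 also: beta-galactosidase luminescence from glucocorticoid response element reporter as proxy for Hsp90 function; inhibitor potency where signal loss means Hsp90 inhibition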

T1 sequence (P10145 whole entry): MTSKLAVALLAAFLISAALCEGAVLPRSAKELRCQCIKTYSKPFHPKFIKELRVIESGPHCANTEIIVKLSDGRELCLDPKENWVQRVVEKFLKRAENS

CCN1CCN(Cc2ccc(NC(=O)c3ccc(C)c(NC(=O)N4CCNC4=O)c3)cc2C(F)(F)F)CC1
IC50 (Interleukin-8 [1]): > 79 µM (inactive) | IC50 (Interleukin-8 [2]): 56.5 µM (inactive)

Cc1cc(C(=O)c2cccs2)c(N)s1
IC50 (Large T antigen): 51.8 µM (active) | IC50 [3]: 20.5 µM (active) | IC50 [4]: 32.7 µM (active) | IC50 (Prothrombin): 28.2 µM (active)

C[C@H]1c2cccc(O)c2C(=O)C2=C(O)[C@]3(O)C(O)=C(C(N)=O)C(=O)[C@@H](N(C)C)C3[C@@H](O)C21 (stereo partly specified)
EC50 [5]: < 0.06 µM (active) | EC50 [6]: 45.3 µM (active) | EC50 (Streptococcus): 0.109 µM (active) | AC50 (Escherichia coli [7]): 39.8 µM (active) | AC50 (Escherichia coli [8]): 2.34 µM (active)

Cc1ccccc1Nc1nc(N)nc(CSc2ccc(F)cc2)n1
EC50 [9]: 0.343 µM (active) | EC50 (H4): < 0.1 µM (active) | EC50 [10]: 0.351 µM (active) | EC50 [11]: 0.229 µM (active) | IC50 (HEK293): > 67.5 µM (inactive) | IC50 [12]: > 67.5 µM (inactive)

CCN(CC)CCOC(=O)c1ccc(N/C=C(/C#N)c2nc(-c3ccc(OC)cc3)cs2)cc1
IC50 (Bcl-2-related protein A1): 2.99 µM (active) | IC50 [13]: 4.88 µM (active) | IC50 [14]: 4.3 µM (active) | IC50 [15]: 9.94 µM (active) | IC50 [16]: > 66.6 µM (inactive) | IC50 [17]: 5.97 µM (active)

CC(=O)Nc1ccc(S(=O)(=O)N[C@@H](C)C(=O)OCC(=O)c2ccc(Br)s2)cc1
IC50 (HEK293): > 67.5 µM (inactive) | IC50 [12]: > 67.5 µM (inactive)

COc1cc([N+](=O)[O-])cc(/C=N/NC(=O)c2cncc(Br)c2)c1O
EC50 [5]: 1.85 µM (active) | EC50 (Streptococcus): 1.02 µM (active) | IC50 [3]: 49.5 µM (active) | IC50 [4]: 12.5 µM (active) | IC50 (Prothrombin): 39.1 µM (active) | IC50 (Fatty acid synthase [18]): 20 µM (active) | IC50 (Fatty acid synthase [19]): 10.2 µM (active) | IC50 (Galanin receptor type 3): > 9.97 µM (active) | EC50 (cells): > 29.9 µM (inactive)

COc1ccc(N2C(=O)CC3(CC(c4ccc(F)cc4)=NO3)C2=O)cc1 (stereo unspecified)
IC50 [15]: 58.3 µM (active)

O=C(N[C@@H]1CC[C@H](CCn2cc(-c3cccnc3)nn2)O[C@@H]1CO)c1ccccc1F
AC50 [20]: 6.17 µM (active)

CC/C(=N/NC(=O)c1ccccc1O)c1c(C)nn(-c2ccccc2)c1O
EC50 [21]: 39 µM (active) | EC50 [22]: 0.114 µM (active) | EC50 [23]: > 180 µM (inactive) | AC50 [24]: 3.29 µM (active) | EC50 [25]: > 150 µM (inactive)
